In US7731985B2, “4-aminopyrimidines and their use for the antimicrobial treatment of surfaces” (Ciba Specialty Chemicals Corporation, priority 2002, dated 2010):
Marks after values point to notes of the source that are not given here.

What was measured:
Type in all cases: cell-based
[1] = test system: Escherichia coli NCTC 8196; assay: Agar incorporation test CG128e (Example 11); conditions: 24 hours at 37° C.
Method: (§1) [table] 0.3 ml of each dilution step is mixed with 15 ml of nutrient medium while the latter is still liquid. After the nutrient medium has solidified, 10 μl of each of the following organism dilutions of the test strains in 0.85% NaCl solution are spotted onto the agar medium: [table] The plates are incubated at 37° C. for 24 hours (A. niger at 28° C. for 3 days) and then the highest dilution (lowest concentration) of the test substance at which growth is just no longer discernible (corresponds to the MIC) is determined.

[2] = test system: Staphylococcus aureus ATCC 6538; assay: Agar incorporation test CG128e (Example 11); conditions: 24 hours at 37° C.
Method: as §1

[3] = test system: Staphylococcus epidermidis ATCC 12228; assay: Agar incorporation test CG128e (Example 11); conditions: 24 hours at 37° C.
Method: as §1

[4] = test system: Proteus vulgaris ATCC 6896; assay: Agar incorporation test CG128e (Example 11); conditions: 24 hours at 37° C.
Method: as §1

[5] = test system: Salmonella choleraesuis ATCC 9184; assay: Agar incorporation test CG128e (Example 11); conditions: 24 hours at 37° C.
Method: as §1

[6] = test system: Candida albicans ATCC 10231; assay: Agar incorporation test CG128e (Example 11); conditions: 24 hours at 37° C.
Method: as §1

[7] = test system: Pseudomonas aeruginosa ATCC 15442; assay: Agar incorporation test CG128e (Example 11); conditions: 24 hours at 37° C.
Method: as §1

[8] = test system: Corynebacterium xerosis* ATCC 373; assay: Agar incorporation test CG128e (Example 11); conditions: 24 hours at 37° C.; organism marked *
Method: as §1

[9] = test system: Escherichia coli ATCC 10536; assay: Agar incorporation test CG128e (Example 11); conditions: 24 hours at 37° C.
Method: as §1

[10] = test system: Propionibacterium acnes (*) ATCC 6919; assay: Agar incorporation test CG128e (Example 11); conditions: 24 hours at 37° C.; organism marked *
Method: as §1

[11] = test system: Klebsiella pneumoniae ATCC 4352; assay: Agar incorporation test CG128e (Example 11); conditions: 24 hours at 37° C.
Method: as §1

[12] = test system: Staphylococcus aureus ATCC 9144; assay: Agar incorporation test CG128e (Example 11); conditions: 24 hours at 37° C.
Method: as §1

[13] = test system: Aspergillus niger ATCC 6275; assay: Agar incorporation test CG128e (Example 11); conditions: 28° C. for 3 days
Method: as §1

[14] = test system: C. minutissimum ATCC 23348; assay: Agar incorporation test CG128e (Example 11); conditions: 24 hours at 37° C.
Method: as §1

[15] = test system: Staphylococcus aureus ATCC 6538; assay: "Microbicidal Activity" suspension test CG 161/EN1040 (Example 12); conditions: S. aureus
Method: (§2) Bacteria are incubated overnight in CASO broth and adjusted to an organism count of 1-5×10^5 CFU/ml using 0.85% sodium chloride solution. The test substances are pre-pipetted into microtitre plates in amounts of 8 μl per well. The adjusted test organism suspensions are added in amounts of 192 μl per well to the test substances and mixed. After defined contact times, the test batches are mixed, an aliquot is withdrawn and diluted in several steps in a dilution series of 1:10 in a suitable inactivation medium. The test plates are incubated for 24 hours at 37° C. After incubation, the growth is determined on the basis of the turbidity of the test batches (optical density) at 620 nm in a microplate reader. […] One microtitre plate is used for each test organism. All the substances are tested in duplicate.

[16] = test system: Actynomyces viscosus ATCC 43146; assay: as above; conditions: A. viscosus
Method: as §2

[17] = test system: Escherichia coli ATCC 10536; assay: as above; conditions: E. coli
Method: as §2

[18] = contact time 5 min, test substance 120 ppm
[19] = contact time 30 min, test substance 120 ppm
[20] = contact time 5 min, test substance 0.12%
[21] = contact time 30 min, test substance 0.12%

MIC (agar incorporation) Escherichia coli NCTC 8196 [1] | MIC (agar incorporation) Staphylococcus aureus ATCC 6538 [2] | MIC (agar incorporation) Staphylococcus epidermidis ATCC 12228 [3] | MIC (agar incorporation) Proteus vulgaris ATCC 6896 [4] | MIC (agar incorporation) Candida albicans ATCC 10231 [6] | MIC (agar incorporation) Pseudomonas aeruginosa ATCC 15442 [7] | MIC (agar incorporation) Corynebacterium xerosis* ATCC 373 [8] | MIC (agar incorporation) Escherichia coli ATCC 10536 [9] | MIC (agar incorporation) Propionibacterium acnes (*) ATCC 6919 [10] | MIC (agar incorporation) Klebsiella pneumoniae ATCC 4352 [11] | MIC (agar incorporation) Staphylococcus aureus ATCC 9144 [12] | MIC (agar incorporation) Aspergillus niger ATCC 6275 [13] | MIC (agar incorporation) C. minutissimum ATCC 23348 [14] | Structure (SMILES) | MIC (agar incorporation) Salmonella choleraesuis ATCC 9184 [5] | log reduction [15, 18] | log reduction [15, 19] | log reduction [16, 20] | log reduction [16, 18] | log reduction [16, 21] | log reduction [16, 19] | further results
120 | 120 | >120 | >120 | >120 | >120 | 60 | >120 | 60 | 60** | 120 | >120 | 30 | CCCCCCCCCCCCNc1cc(C)nc(-c2cccnc2)n1 [Compound of formula 36] | >120 | – | – | – | – | – | – | –
120 | 7.5 | 120 | 60 | >120 | >120 | 3.75 | >120 | 3.75 | >120 | 7.5 | >120 | 3.75 | CCCCCCCCCCCCNc1cc(C)nc(C)n1 [Compound of formula 89] | >120 | <1 log | 1.7 log | 4.9 log | 3.9 log | >5 log | 4.3 log | log reduction [17, 18]: 4.6 log; log reduction [17, 19]: >5 log
120 | 3.75 | 3.75 | >120 | >120 | >120 | 1.88* | 120 | 3.75 (*) | 60 | 3.75 | >120 | 1.88 | CCCCCCCCCCCCNc1cc(C)nc(C(C)C)n1 [Compound of formula 93, 4-dodecylamino-2-isopropyl-6-methylpyrimidine] | 120 | 1.4 log | 3.8 log | >5 log | 2 log | >5 log | 4 log | log reduction [15, 20]: >5 log; log reduction [15, 21]: >5 log; log reduction [17, 20]: >5 log; log reduction [17, 18]: >5 log; log reduction [17, 21]: >5 log; log reduction [17, 19]: >5 log
